The data set has as its system Caco-2 monolayer permeability, A-to-B, LC-MS/MS. Kind of data set: Inhibitors of HPGD: Caco-2 Cell Permeability Profiling. The note with it: hits give high values. From the text:
Human 15-Hydroxyprostaglandin dehydrogenase (HPGD) catalyzes the inactivation of prostaglandin E2, and plays a major role in cancer biology by antagonizing the oncogenic potential of cyclooxygenase type 2 (COX2). Assays are available, based on absorbance/fluorescence increase of NADH with the substrate 15-OH prostaglandin E2. This bioassays provides profiling data on Caco-2 cell permeability of leads compounds developed for the HPGD project. This in vitro model is often predictive of in vivo absorption of the compound across the intestinal lining by using a Caco2-cell line and measuring the compound's rate of transport […]. NIH Chemical Genomics Center [NCGC] Structural Genomics Consortium [SGC]
1. Buffer Preparation: Prepare 1M HEPES: add 23.83g HEPES to 100ml of 0.85% NaCl Prepare HBSS+ buffer: add 12.8ml of 1M HEPES in 0.85% NaCl to 500ml HBSS buffer. 2. Take out the compounds from -80 degrees C, ultrasonicate or pre-warm for a few minutes to thaw the compounds. 3. […] The T0, LY and T90, LY plates are read by FlexStation 3 at excitation of 485 nm and emission of 535 nm to determine LY permeability. […]

The structures appear in SMILES notation.

Regarding `Cc1cc(-c2nnc3n2CCCCC3)c(C)n1-c1ccccc1`, the permeability Papp was 21 10^-6 cm/s.

For the molecule `Cc1cccc(-n2cnc3cc(C(=O)N4CCCCC4)ccc32)c1`, the permeability Papp is 15 10^-6 cm/s.

These data come from PubChem BioAssay AID504629 (National Center for Advancing Translational Sciences (NCATS), 2011).
